Assay results reported in publication PMC8959600 (eLife, 2022).
Values after ≈ are worked out from the molar mass of the structure shown.

Tests used:
S. flexneri 2457T [1] = assay: Gnotobiotic piglet Shigella infection model, efficacy; format: in vivo; conditions: 6-day experiment
S. flexneri EG478 = assay: Solid medium test at 10 µM and dose-response MIC against MDR clinical isolate; format: cell-based, Shigella flexneri
Method: (§1) The confirmed hit list was narrowed by applying the following filters: a 30% cut-off value, absence of undesirable structural features (e.g. electrophiles, peroxides, and Michael acceptors) and reduced physicochemical risk (maximum five aromatic rings and PFI <8)([Leeson and Young, 2015]). […] Briefly, the selected bacteria were cultured on the Luria-Bertani agar overnight at 37 °C (Campylobacter isolates were grown in 2.5% Laked Horse Blood cation-adjusted Mueller Hinton medium (CAMHB, Sigma Aldrich) and incubated in microaerophilic conditions (10% CO2, 5% O2 and 85% N2) at 42 °C); colonies were added to sterile PBS to form 0.5 McFarland solutions. All chemical testing was performed at an initial concentration of 10 μM. Bacterial suspensions were evenly spread on Mueller-Hinton agar by sterile cotton swabs (Medical Wire – MWE). […] Plates were incubated overnight at 37 °C. The activity of the chemical was recorded as being active (yes) or non-active (no) for each of the tested chemicals.
(§2) MICs were evaluated using the micro dilution assay in Müller Hinton broth using 1 mM chemical stock solutions, and a final concentration of 5 × 10^5 CFU/mL bacteria. Twofold serial dilutions were prepared in 96-well plates at concentration ranging from 1 μM to 7.8 nM. 100 μL bacteria were added and incubated at 37 °C overnight; 10 μl of each solution was dropped onto Luria-Bertani agar and incubated overnight at 37 °C for the detection of bacterial growth. Results were interpreted as minimal concentration necessary to inhibit growth.

[2] = tested on: clinical isolates of Shigella (S. flexneri EG478, S. flexneri_01_0417, S. sonnei_02_1181); assay: Time-kill curve assays; format: cell-based, Shigella spp.
Method: Time-kill curve assays were performed in 20 mL volume in 50 mL tubes by culturing 5 × 10^5 CFU/mL Shigella spp. in Müller Hinton broth in the presence of four antimicrobial concentrations in doubling dilutions ranging from 0.5xMIC to 4xMIC. Bacteria were grown with agitation at 200 rpm at 37 °C and monitored over a time-course of 24 hr (0, 2, 4, 6, 8, and 24 hr). For each concentration and time point, 100 μL of bacterial culture were diluted and used to inoculate Luria-Bertani agar plates that were incubated at 37 °C overnight. Next, bacterial colonies were enumerated.

S. flexneri 2457T [3] = format: in vivo; conditions: mice, 39 mg/kg Tebipenem freebase subcutaneously, 24 hr after intraperitoneal infection
[4] = tested on: invasive and non-invasive Salmonella isolates; assay: Checkerboard synergy assay (FIC), clinical Salmonella isolates; format: cell-based; conditions: in combination with azithromycin
Method: (§3) Before initiating drug combination assays, the MIC values for both compounds were determined against Shigella (Sf2457T), Salmonella (St14028), and E. coli (EcDH5a) isolates. […] 20 μM moxifloxacin was used as negative control (100% bacterial growth inhibition) in one column and DMSO as positive control (100% bacterial growth). A total of 25 µl of 1 × 10^6 CFU/mL bacterial culture was added to each well of a 384-well plate (μClear; Greiner Bio‐One). Plates were incubated overnight at 37 °C. Next, 10 µl of resazurin were added and plates were incubated at room temperature for 3 hr. Bacterial growth inhibition was measured by fluorescence in a Envision plate reader (PerkinElmer). All assays were performed in duplicate. Combination studies with clinical isolates were performed in 96-well plates (Greiner) adding 200 μl of 1 × 10^6 CFU/mL bacterial culture and following the same checkboard titration method as described above. The range of final working concentrations of each antimicrobial was adjusted based on the MIC of each selected organism.
MICs were determined for drug A and drug B alone and in combination. […]

S. flexneri 2457T [5] = assay: microbe, parasite or virus in culture; format: cell-based, Shigella flexneri
Method: Bacterial inoculum without drug was used as positive control. The bacteria inoculum (1 × 10^5 CFU/mL) for the assay was prepared by diluting a log phase incubated at 37 °C for 3–4 hr. Mueller Hinton agar plates were prepared containing 4xMIC and 10xMIC and inoculated with different concentrations of bacteria (1 × 10^9, 1 × 10^8, and 1 × 10^7 CFU/mL). Plates were prepared in duplicate and incubated overnight at 37 °C. The frequency of spontaneous resistant mutants was calculated by using the formula: FoR = resistant CFUs/inoculum CFUs. The mean of the two plates was reported.

in vivo = conditions: female, C57, mouse; for bioavailability: mice, n = 3
S. sonnei 02–1181 = assay: Solid medium test at 10 µM and dose-response MIC against MDR clinical isolate; format: cell-based, Shigella sonnei
Method: as §1, §2

Shigella (Sf2457T) = assay: Checkerboard synergy assay (FIC), laboratory isolate; format: cell-based, Shigella flexneri
Method: as §3
MICs were determined for drug A and drug B alone and in combination. […] The sum of FIC was expressed using the following equation: FIC = (MIC of drug A in combination / MIC of drug A alone) + (MIC of drug B in combination / MIC of drug B alone) ([Le Minh et al., 2015]; [Petersen et al., 2006]; [Hall et al., 1983]; [European Committee for Antimicrobial Susceptibility Testing (EUCAST) of the European Society of Clinical Microbiology and Infectious Dieases (ESCMID), 2000]).

[6] = in combination with LpxC inhibitor PF-5081090

In the case of `C[C@@H](O)[C@H]1C(=O)N2C(C(=O)O)=C(SC3CN(C4=NCCS4)C3)[C@H](C)[C@H]12` [Tebipenem], the “weight gain vs vehicle-treated piglets” value (S. flexneri 2457T [1]) is reported as “not statistically significant”, the bactericidal activity (S. flexneri EG478; MDR clinical isolate S. flexneri EG478) is reported as “greatest bactericidal activity” and the MIC range (S. flexneri EG478; range over S. flexneri EG478 and S. sonnei 02-1181) is reported as 0.08 to 0.15 µg/mL. For the same compound, the “time kill, antibacterial activity” value ([2]; higher concentrations (2–4 x MIC), 24 hr) was “protracted antibacterial activity”, the “time kill, population behaviour” value ([2]; lower concentrations (0.5–1 x MIC), after 6 hr exposure, all three isolates) was “Population rebounds occurred” and the “reduction of organisms in the small intestine” value (S. flexneri 2457T [3]) was 1.2 log. For the same compound, the FIC scores [4] was ~ 0.5, the “frequency of spontaneous resistance” value (S. flexneri 2457T [5]; S. flexneri 2457T, 4 x and 10 x MIC) was < 1.2 × 10^–9 and the MIC (S. flexneri 2457T [5]; Shigella flexneri, 2457T) was 0.02 µM (≈ 7.67 ng/mL). For the same compound, the Tmax (in vivo) was no more than 60 min, the AUC(0-t) (in vivo; 39 mg/kg) was 80000 ng·h/mL and the AUC(0-t) (in vivo; po, 39 mg/kg) was 7500 ± 1500 ng·h/mL. It also gave a Cmax (in vivo; po, 39 mg/kg) of 3700 ± 900 ng/mL, a bioavailability (in vivo; po, 39 mg/kg, Tebipenem PO 39 mg/kg) of roughly 5% and an AUC(0-t) (in vivo; sc, 39 mg/kg) of 80400 ± 7700 ng·h/mL. It also gave a Cmax (in vivo; sc, 39 mg/kg) of 71000 ± 15300 ng/mL, a Tmax (in vivo; sc, 39 mg/kg) of 15 min and a bioavailability (in vivo; sc, 39 mg/kg, Tebipenem SQ 39 mg/kg) of 44 ± 4%. For the same compound, the bactericidal activity (S. sonnei 02–1181) was “greatest bactericidal activity”, the “interaction (FIC index)” value (Shigella (Sf2457T); [6]) was “partial synergy” and the “reduction of the MIC against Tebipenem” value (Shigella (Sf2457T); [6]) was greater than 10 fold. For the same compound, the “interaction (FIC index)” value (Shigella (Sf2457T); in combination with azithromycin) was “partial synergy”, the “interaction (FIC index)” value (Shigella (Sf2457T); in combination with ceftriaxone) was “indifference or partial synergy” and the “interaction (FIC index)” value (Shigella (Sf2457T); in combination with ciprofloxacin) was “indifference or partial synergy”. For the same compound, the “interaction (FIC index)” value (Shigella (Sf2457T); in combination with mecillinam) was “indifference or partial synergy”.
